Experimental data published in patent US20250123273A1, “SYSTEM TO CALCULATE HUMAN ORAL BIOAVAILABILITY” (CN Bio Innovations Limited, priority 2023, published 2025).

Key:
[1] = system: primary liver cells; assay: CYP3A4 metabolic rate of primary liver cells co-cultured with primary intestinal cells in dual organ plate; format: cell-based, human; details: co-culture with primary intestinal cells; threshold 1 pmol/min/million cell; by day 6 in culture; FIG. 4
[2] = system: primary human intestinal cells; assay: Intestinal barrier strength by transepithelial electrical resistance (TEER), primary intestinal cells in different media; format: cell-based; details: after 8 days in culture, FIG. 3
Excerpt: It was clear that that serum free intestinal differentiation media compromised the metabolic functionality of primary liver cells, thus would not be appropriate for the co-culture of these two cell types. Therefore, the inventors investigated which components of serum free intestinal differentiation media were important for intestinal barrier function.

Compound | CYP3A4 metabolic rate [1] | TEER (intestinal barrier strength) [2]
epidermal growth factor [EGF] | compromises the metabolic functionality | critical for primary intestinal cell barrier function
C[C@]12CCC(=O)C=C1CC[C@@H]1[C@@H]2[C@@H](O)C[C@@]2(C)[C@H]1CC[C@]2(O)C(=O)CO [hydrocortisone, reference compound] |  | help maintain primary intestinal cell barrier function
